# Values of other authors as cited in patent US6579851B2, “Effects of glucagon-like peptide-1 (7-36) on antro-pyloro-duodenal motility” (Amylin Pharmaceuticals, Inc., priority 2000, dated 2003).
# Key:
# gastroduodenal motility = conditions: cited from earlier work
# [1] = in vivo; cited from earlier work
substance,measurement,setting,value
Glucagon,Effect on contractions in the antrum,gastroduodenal motility; doses as high as 2 mg,does not reduce contractions in the antrum
same,Minimally effective dose for reduction in gastroduodenal motility,gastroduodenal motility; in vivo,0.5 mg
same,Dose at which side effects (nausea and vomiting) can appear,[1],1 mg
